Measured values reported in ChEMBL document CHEMBL4406827, “Novel 4-quinoline-thiosemicarbazone derivatives: Synthesis, antiproliferative activity, in vitro and in silico biomacromolecule interaction studies and topoisomerase inhibition” (Eur J Med Chem, 2019).
The source made the active and inactive calls. The rule behind the calls is not given here.

Tests used:
Calf thymus DNA [1] = experiment: Binding affinity to calf thymus DNA assessed as hypochromicity at 30 uM incubated for 10 mins by UV-Vis absorption spectroscopic method relative to control; format: nucleic-acid assay; details: Bos taurus
Calf thymus DNA [2] = experiment: Binding affinity to calf thymus DNA assessed as binding constant incubated for 10 mins by UV-Vis absorption spectroscopic method; format: nucleic-acid assay; details: Bos taurus
Calf thymus DNA [3] = experiment: Binding affinity to calf thymus DNA assessed as fold change in hypochromicity at 10 uM by fluorescence emission spectrum analysis relative to control; format: nucleic-acid assay; details: Bos taurus
Calf thymus DNA [4] = experiment: Binding affinity to calf thymus DNA assessed as DNA spectral changes at 30 uM incubated for 10 mins by circular dichroism method; format: nucleic-acid assay; details: Bos taurus
Salmon testes DNA = experiment: Binding affinity to salmon sperm […] DNA assessed as DNA intercalation by measuring increase in viscosity at 12 to 60 uM by viscometric method; format: nucleic-acid assay; details: Salmonidae
Albumin [5] = target: T1, Albumin (Bos taurus, UniProt P02769); experiment: Binding affinity to bovine serum albumin assessed as hyperchromicity at 5 to 40 uM incubated for 10 mins by UV-Vis absorption spectroscopic method relative to control; format: ADME; details: cattle, isolated protein
Albumin [6] = target: T1, Albumin; experiment: Binding affinity to bovine serum albumin assessed as binding constant incubated for 10 mins by UV-Vis absorption spectroscopic method; format: ADME; details: cattle, isolated protein
Albumin [7] = target: T1, Albumin; experiment: Binding affinity to bovine serum albumin assessed as hypochromicity at 5 to 40 uM by fluorescence emission spectrum analysis method relative to control; format: ADME; details: cattle, isolated protein
Albumin [8] = target: T1, Albumin; experiment: Binding affinity to bovine serum albumin assessed as Stem-Volmer quenching constant incubated for 10 mins by fluorescence emission spectrum analysis; format: ADME; details: cattle, isolated protein
[9] = Cytotoxicity against mouse RAW264.7 cells assessed as reduction in cell viability incubated for 48 hrs by MTT assay; format: cell-based
MCF7 = experiment: Cytotoxicity against human MCF7 cells assessed as reduction in cell viability incubated for 48 hrs by MTT assay; format: functional, cell-based; details: MCF7, 48 h
T47D = experiment: Cytotoxicity against human T47D cells assessed as reduction in cell viability incubated for 48 hrs by MTT assay; format: functional, cell-based
[10] = Selectivity index, ratio of CC50 for mouse RAW264.7 cells to ratio of IC50 for human MCF7 cells; format: toxicity; details: RAW264.7 cells and MCF7 cells, read-out: Ratio CC50/IC50
[11] = Selectivity index, ratio of CC50 for mouse RAW264.7 cells to ratio of IC50 for human T47D cells; format: toxicity; details: RAW264.7 cells and T47D cells, read-out: Ratio CC50/IC50
[12] = target: DNA topoisomerase 2-alpha (Homo sapiens) (UniProt P11388); experiment: Inhibition of recombinant human topoisomerase 2alpha using supercoiled pUC19 plasmid DNA as substrate at 10 uM incubated for 45 mins by ethidium bromide dye based agarose gel electrophoresis method
Calf thymus DNA [13] = experiment: Binding affinity to calf thymus DNA assessed as hypsochromic shift at 10 uM by fluorescence emission spectrum analysis; format: nucleic-acid assay; details: Bos taurus
Albumin [14] = target: T1, Albumin; experiment: Binding affinity to bovine serum albumin assessed as hypsochromic shift at 5 to 40 uM by fluorescence emission spectrum analysis method; format: ADME; details: cattle, isolated protein
Calf thymus DNA [15] = experiment: Binding affinity to calf thymus DNA assessed as hypsochromic shift at 30 uM incubated for 10 mins by UV-Vis absorption spectroscopic method; format: nucleic-acid assay; details: Bos taurus
Calf thymus DNA [16] = experiment: Binding affinity to calf thymus DNA assessed as fold change in hyperchromicity at 10 uM by fluorescence emission spectrum analysis relative to control; format: nucleic-acid assay; details: Bos taurus
Calf thymus DNA [17] = experiment: Binding affinity to calf thymus DNA assessed as hyperchromicity at 30 uM incubated for 10 mins by UV-Vis absorption spectroscopic method relative to control; format: nucleic-acid assay; details: Bos taurus
Calf thymus DNA [18] = experiment: Binding affinity to calf thymus DNA assessed as bathochromic shift at 30 uM incubated for 10 mins by UV-Vis absorption spectroscopic method; format: nucleic-acid assay; details: Bos taurus
Calf thymus DNA [19] = experiment: Binding affinity to calf thymus DNA assessed as DNA spectral changes by measuring decrease in positive band at 274 nm at 30 uM incubated for 10 mins by circular dichroism method; format: nucleic-acid assay; details: Bos taurus
Calf thymus DNA [20] = experiment: Binding affinity to calf thymus DNA assessed as DNA spectral changes by measuring increase in negative band at 245 nm at 30 uM incubated for 10 mins by circular dichroism method; format: nucleic-acid assay; details: Bos taurus
Albumin [21] = target: T1, Albumin; experiment: Binding affinity to bovine serum albumin assessed as hypsochromic shift at 5 to 40 uM incubated for 10 mins by UV-Vis absorption spectroscopic method relative to control; format: ADME; details: cattle, isolated protein

T1 sequence (P02769 whole entry): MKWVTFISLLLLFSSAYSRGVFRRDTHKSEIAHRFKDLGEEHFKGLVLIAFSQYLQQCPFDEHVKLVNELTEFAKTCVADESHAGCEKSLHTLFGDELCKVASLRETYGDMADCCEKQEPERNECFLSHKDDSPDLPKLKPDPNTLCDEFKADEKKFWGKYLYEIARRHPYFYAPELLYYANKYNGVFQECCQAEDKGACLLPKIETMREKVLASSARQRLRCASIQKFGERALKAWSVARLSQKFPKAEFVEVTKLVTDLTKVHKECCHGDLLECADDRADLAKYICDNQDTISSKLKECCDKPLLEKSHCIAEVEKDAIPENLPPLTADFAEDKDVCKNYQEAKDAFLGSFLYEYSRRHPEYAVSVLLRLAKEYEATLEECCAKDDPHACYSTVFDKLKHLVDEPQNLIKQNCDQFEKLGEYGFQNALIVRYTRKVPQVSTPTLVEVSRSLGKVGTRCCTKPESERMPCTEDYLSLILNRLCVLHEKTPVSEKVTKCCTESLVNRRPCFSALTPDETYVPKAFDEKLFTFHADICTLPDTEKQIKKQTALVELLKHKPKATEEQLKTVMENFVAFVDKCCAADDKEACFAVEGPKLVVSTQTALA
Sequence of DNA topoisomerase 2-alpha (Homo sapiens) (P11388 whole entry): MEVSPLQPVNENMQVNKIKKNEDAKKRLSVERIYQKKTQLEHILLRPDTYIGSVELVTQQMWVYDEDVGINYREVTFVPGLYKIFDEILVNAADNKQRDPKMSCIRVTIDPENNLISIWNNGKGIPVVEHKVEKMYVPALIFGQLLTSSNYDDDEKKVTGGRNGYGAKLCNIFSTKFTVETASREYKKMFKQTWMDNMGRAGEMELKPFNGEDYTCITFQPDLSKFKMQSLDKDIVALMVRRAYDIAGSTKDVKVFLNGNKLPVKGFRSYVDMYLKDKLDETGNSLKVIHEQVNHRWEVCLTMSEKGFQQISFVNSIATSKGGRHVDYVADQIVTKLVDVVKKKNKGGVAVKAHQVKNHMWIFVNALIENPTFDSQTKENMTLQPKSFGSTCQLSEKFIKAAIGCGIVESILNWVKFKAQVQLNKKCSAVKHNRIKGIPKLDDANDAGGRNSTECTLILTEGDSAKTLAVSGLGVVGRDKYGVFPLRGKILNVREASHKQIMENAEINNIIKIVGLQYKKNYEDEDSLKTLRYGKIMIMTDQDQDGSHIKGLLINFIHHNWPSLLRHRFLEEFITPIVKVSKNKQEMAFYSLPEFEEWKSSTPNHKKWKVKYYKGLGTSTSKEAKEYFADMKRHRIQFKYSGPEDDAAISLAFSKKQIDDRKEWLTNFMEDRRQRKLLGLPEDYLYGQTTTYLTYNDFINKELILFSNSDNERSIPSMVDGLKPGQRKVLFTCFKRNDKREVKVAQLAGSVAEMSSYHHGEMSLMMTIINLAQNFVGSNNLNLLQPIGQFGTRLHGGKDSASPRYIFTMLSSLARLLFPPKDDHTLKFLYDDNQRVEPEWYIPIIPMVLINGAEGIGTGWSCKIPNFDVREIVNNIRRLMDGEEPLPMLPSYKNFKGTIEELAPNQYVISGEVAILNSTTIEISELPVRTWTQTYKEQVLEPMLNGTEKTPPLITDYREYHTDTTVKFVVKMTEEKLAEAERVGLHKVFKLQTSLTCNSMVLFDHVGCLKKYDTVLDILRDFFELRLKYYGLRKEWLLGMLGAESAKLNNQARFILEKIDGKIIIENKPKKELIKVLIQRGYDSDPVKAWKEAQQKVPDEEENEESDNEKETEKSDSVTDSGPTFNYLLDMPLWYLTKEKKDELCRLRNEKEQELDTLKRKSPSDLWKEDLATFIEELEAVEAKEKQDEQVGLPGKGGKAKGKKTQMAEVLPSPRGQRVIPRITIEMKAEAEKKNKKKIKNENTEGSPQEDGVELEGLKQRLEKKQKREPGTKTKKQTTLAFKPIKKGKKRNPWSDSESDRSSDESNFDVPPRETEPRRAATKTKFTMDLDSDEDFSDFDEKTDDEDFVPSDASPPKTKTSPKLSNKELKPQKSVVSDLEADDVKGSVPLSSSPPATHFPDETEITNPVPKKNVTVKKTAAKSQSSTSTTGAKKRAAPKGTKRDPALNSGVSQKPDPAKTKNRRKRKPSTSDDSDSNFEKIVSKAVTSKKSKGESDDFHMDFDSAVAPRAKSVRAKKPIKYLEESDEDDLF

Activity (Calf thymus DNA [1]) [%]	Kb (Calf thymus DNA [2])	fold change (FC) (Calf thymus DNA [3])	Activity (Calf thymus DNA [4])	Activity (Salmon testes DNA)	Activity (Albumin [5]) [%]	Kb (Albumin [6])	Activity (Albumin [7]) [%]	KSV (Albumin [8]) [×10⁴ /M]	inhibition [12]	Activity (Calf thymus DNA [13])	Activity (Albumin [14])	Activity (Calf thymus DNA [17]) [%]	Compound	CC50 at 48 h [9] [µM]	IC50 (MCF7) [µM]	IC50 (T47D) [µM]	selectivity ratio [10]	selectivity ratio [11]	further results
52.3	3.5 ×10⁴ /M	3.72	Active	Active	52.75	7.29 ×10⁴ /M	33.65	11.19	Active	Active	Active		S=C(N/N=C\c1ccnc2ccccc12)Nc1ccccc1	118	1.07	1.38	110	85.5	
27.4	2.42 ×10⁴ /M	5.53	Active	Active	62.54	1.08 ×10⁵ /M	157.14	4.09	inactive		Active		S=C(NCCc1ccccc1)N/N=C\c1ccnc2ccccc12	33	1.09	1.12	30.2	29.4	
				Active					Active				COc1cc(NS(C)(=O)=O)ccc1Nc1c2ccccc2nc2ccccc12 [AMSACRINE]	95.5	0.91	0.94	105	102	
	3.98 ×10⁴ /M	6.64	Active	Active	52.42	1.44 ×10⁵ /M	371.21	10.39	Active		Active	2.88	C=CCNC(=S)N/N=C\c1ccnc2ccccc12	105	0.97	1.23	108	85.5	Activity (Calf thymus DNA [18]): Active
8.51	6.29 ×10⁴ /M	1.88	Active	Active	53.34	1.13 ×10⁵ /M	68.97	6.07	Active	Active	Active		S=C(N/N=C\c1ccnc2ccccc12)Nc1ccc(Cl)cc1	63.5	1.07	1.27	59.3	50	Activity (Calf thymus DNA [15]): Active
	1.33 ×10⁵ /M	11.6	Active	Active	42.61	5.44 ×10⁴ /M	320.04	9.24	Active	Active	Active	59.6	COc1ccc(NC(=S)N/N=C\c2ccnc3ccccc23)cc1	101	0.99	1.36	102	74.6	Activity (Calf thymus DNA [15]): Active

Second part, the molecule before the results:

Compound	Activity (Calf thymus DNA [1]) [%]	Kb (Calf thymus DNA [2])	fold change (FC) (Calf thymus DNA [3])	Activity (Calf thymus DNA [4])	Activity (Salmon testes DNA)	Activity (Albumin [5]) [%]	Kb (Albumin [6])	Activity (Albumin [7]) [%]	KSV (Albumin [8]) [×10⁴ /M]	inhibition [12]	Activity (Calf thymus DNA [13])	Activity (Albumin [14])	Activity (Calf thymus DNA [17]) [%]	CC50 at 48 h [9] [µM]	IC50 (MCF7) [µM]	IC50 (T47D) [µM]	selectivity ratio [10]	selectivity ratio [11]	further results
O=[N+]([O-])c1ccc(NC(=S)N/N=C\c2ccnc3ccccc23)cc1	12.9	2.51 ×10⁴ /M	7.69	Active	Active	43.48	1.03 ×10⁵ /M	132.77	3.82	inactive		Active		82.5	0.81	1.33	102	62	Activity (Calf thymus DNA [15]): Active
CNC(=O)c1cccc2c(Nc3ccc(NS(C)(=O)=O)cc3OC)c3cccc(C)c3nc12 [ASULACRINE]														31.2					
S=C(N/N=C\c1ccnc2ccccc12)Nc1cccnc1	20.3	1.96 ×10⁵ /M		Active	Active	52.95	8.03 ×10⁴ /M	493.41	3.99	inactive		Active		91.6	0.97	1.1	94.4	83.3	fold change (FC) (Calf thymus DNA [16]): 0.89
S=C(N/N=C\c1ccnc2ccccc12)Nc1cccc2ccccc12		2.54 ×10⁵ /M	1.67	Active	Active	53.34	1.13 ×10⁵ /M	226.14	6.36	Active		Active	13.9	22.6	0.88	1.21	25.6	18.6	
S=C(N/N=C\c1ccnc2ccccc12)Nc1ccc(Br)cc1	10.8	7.44 ×10⁴ /M	6.06	Active	Active	56.43	1.17 ×10⁵ /M	508.17	11.2	Active		Active		53.5	0.99	1.48	54.1	36.2	Activity (Calf thymus DNA [15]): Active
Cc1ccc(NC(=S)N/N=C\c2ccnc3ccccc23)cc1		3.56 ×10⁵ /M	2.77	Active	Active	58.04	1.39 ×10⁵ /M	287.44	8.85	inactive	Active	Active	11.8	50.5	0.98	1.32	51.5	38.3	Activity (Calf thymus DNA [18]): Active
CCc1ccc(NC(=S)N/N=C\c2ccnc3ccccc23)cc1		1.62 ×10⁶ /M	4.65		Active	69.01	1.43 ×10⁵ /M	601.57	16.05	inactive	Active	Active	51.4	35.7	0.82	1.28	43.6	27.9	Activity (Calf thymus DNA [19]): Active; Activity (Calf thymus DNA [20]): Active; Activity (Calf thymus DNA [18]): Active; Activity (Albumin [21]): Active
Fc1ccc(NC(=S)N/N=C\c2ccnc3ccccc23)cc1		2.37 ×10⁵ /M	3.44	Active	Active	38.74	8.4 ×10⁴ /M	237.42	5.9	Active		Active	15.9	45.9	1.1	1.07	41.7	42.9	
